In US11111247B2, “Pyrazolopyrimidine compounds and uses thereof” (Incyte Corporation, priority 2018, dated 2021):
Read-outs that look alike come from different tables or passages of the source.

Key:
FGFR1 (UP) = FGFR1 (UP) (Homo sapiens (Human), UniProt P11362); experiment: FGFR Enzymatic Assay, FGFR1 un-phosphorylated
Protocol: The inhibitor potency of the exemplified compounds was determined in an enzyme discontinuous assay that measures peptide phosphorylation using FRET measurements to detect product formation. Inhibitors were serially diluted in DMSO and a volume of 0.2 μL was transferred to the wells of a 384-well plate. For the isoforms of FGFR (−1, −2, −3 wild-type and mutant isoforms, −4) including phosphorylated (P) and un-phosphorylated (UP) proteins, a 5 μL/well volume of enzyme diluted in assay buffer (50 mM HEPES, 10 mM MgCl2, 1 mM EGTA, 0.01% Tween-20, 5 mM DTT, pH 7.5) was added to the plate and pre-incubated with inhibitor for 5 to 15 minutes at ambient temperature. Appropriate controls (enzyme blank and enzyme with no inhibitor) were included on the plate. The reaction was initiated by the addition of a 5 μL/well volume containing both biotinylated [sequence] […] The plate was allowed to equilibrate for −10 minutes at ambient temperature before scanning on a PheraStar plate reader (BMG Labtech) instrument.
Either GraphPad prism or XLfit was used to analyze the data. The IC50 values were derived by fitting the data to a four parameter logistic equation producing a sigmoidal dose-response curve with a variable Hill coefficient. Prism equation: Y=Bottom+(Top−Bottom)/(1+10^((LogIC50−X)*Hill slope)); XLfit equation: Y=(A+((B−A)/(1+((X/C)^D)))) where X is the logarithm of inhibitor concentration and Y is the response.

RT112 cells = experiment: Luminescent Viability Assay (LVA, FGFR3); type: cell-based; settings: Homo sapiens, RT-112, 72 h, 3 days, CellTiter-Glo
Procedure, shortened: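 RT112 bladder cells grown in RPMI with 10% FBS were exposed to a compound concentration range for 3 days. Viability read by CellTiter-Glo luminescence; IC50 fitted from percent inhibition versus log concentration.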

FGFR3 (UP) = FGFR3 (UP) (Homo sapiens (Human), UniProt P22607); experiment: FGFR Enzymatic Assay, FGFR3 un-phosphorylated; settings: read-out: FGFR3 (UP) IC50; un-phosphorylated enzyme, ATP near or below Km
FGFR2 (P) = FGFR2 (P) (Homo sapiens (Human), UniProt P21802); experiment: FGFR Enzymatic Assay, FGFR2 phosphorylated; settings: read-out: FGFR2 (P) IC50; phosphorylated enzyme, ATP near or below Km
FGFR3 = FGFR3 (Homo sapiens, UniProt P22607); experiment: pFGFR3 Functional Cell HTRF Assay (BAF3-TEL-FGFR3 cells); type: cell-based; settings: 2 hours
Protocol: (§1) To measure phosphorylated Fibroblast Growth Factor Receptor 1 and 3 (FGF1 and FGFR3), in house stable cell lines BAF3-TEL-FGFR1 or BAF3-TEL-FGFR3 were maintained in RPMI with 10% FBS and 1 μg/ml puromycin (Gibco/Life Technologies). […] The plates were gently shaken (100 rpm) for 2 minutes at room temperature to mix well and incubated for 2 hours in a single layer at 37° C., 5% CO2. 4 μl/well of 1/25 dilution of lysis buffer #3 (Cis Bio) was added with standard Protease inhibitors and shaken at 200 rpm at room temperature for 20 minutes. 4 μl total of the Cis Bio Tb-pFGFR Ab (10 ng) and d2-FGFR3 (1 ng) together were added to the lysate and mixed well. Plates were sealed and incubated at room temperature overnight in the dark. […] IC50 determination was performed by fitting the curve of inhibitor percent inhibition versus the log of the inhibitor concentration using the GraphPad Prism 5.0 software.

FGFR1 = FGFR1 (Homo sapiens, UniProt P11362); experiment: pFGFR1 Functional Cell HTRF Assay (BAF3-TEL-FGFR1 cells); type: cell-based
Protocol: as §1

ALK2 (aa 147-end) = ALK2 (aa 147-end) (Homo sapiens (Human), UniProt Q04771); experiment: ALK2 HTRF Assay; type: biochemical
FGFR2 = FGFR2 (Homo sapiens, UniProt P21802); experiment: pFGFR2 Functional Cell HTRF Assay (KATOIII cells); type: cell-based; settings: 1 hour, read-out: FGFR2 HTRF IC50
Protocol: To measure phosphorylated Fibroblast Growth Factor Receptor 2 (FGFR2), KATOIII cells (Human Gastric Carcinoma) were purchased from ATCC and maintained in Iscove's with 20% FBS (Gibco/Life Technologies). For the pFGFR2 assay, KATOIII cells were plated overnight in 5% FBS and Iscove's medium at 5×10^4 cells/well into Corning 96-well flat-bottom tissue culture treated plates. The next morning, 50 μl of fresh media with 0.5% FBS was incubated in the presence or absence of a concentration range of test compounds also at 50 μl, for 1 hour at 37° C., 5% CO2. Cell were washed with PBS, and lysed with Cell Signaling Lysis Buffer with standard Protease inhibitors for 45 min at room temperature. 4 μl total of Cis Bio Anti […] together were added to the lysate and mixed well (following directions of the kit). 16 μl was then transferred to 384 well Greiner white plates and stored at 4° C. overnight in the dark. Plates were read on the Pherastar plate reader at 665 nm and 620 nm wavelengths. IC50 determination was performed by fitting the curve of inhibitor percent inhibition versus the log of the inhibitor concentration using the GraphPad Prism 5.0 software. […] NT=Not tested.

FGFR2 (UP) = FGFR2 (UP) (Homo sapiens (Human), UniProt P21802); experiment: FGFR Enzymatic Assay, FGFR2 un-phosphorylated; settings: read-out: FGFR2 (UP) IC50; un-phosphorylated enzyme, ATP near or below Km
[1] = read-out: FGFR1 (UP) IC50, un-phosphorylated enzyme, ATP near or below Km
[2] = read-out: ALK2 100 μM IC50, 100 uM ATP

ALK2 (aa 147-end), sequence (Q04771 147-509): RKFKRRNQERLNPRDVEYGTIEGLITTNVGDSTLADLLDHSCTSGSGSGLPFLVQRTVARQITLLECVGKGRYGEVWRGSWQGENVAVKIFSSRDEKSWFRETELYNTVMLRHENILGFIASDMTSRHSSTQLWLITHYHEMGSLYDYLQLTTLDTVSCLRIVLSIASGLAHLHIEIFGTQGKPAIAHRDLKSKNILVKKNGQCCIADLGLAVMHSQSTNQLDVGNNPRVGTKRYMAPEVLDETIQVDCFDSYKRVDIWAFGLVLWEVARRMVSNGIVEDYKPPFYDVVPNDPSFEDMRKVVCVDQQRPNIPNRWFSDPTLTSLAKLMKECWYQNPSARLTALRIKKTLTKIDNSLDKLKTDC
FGFR2 (UP), sequence (P21802 22-821): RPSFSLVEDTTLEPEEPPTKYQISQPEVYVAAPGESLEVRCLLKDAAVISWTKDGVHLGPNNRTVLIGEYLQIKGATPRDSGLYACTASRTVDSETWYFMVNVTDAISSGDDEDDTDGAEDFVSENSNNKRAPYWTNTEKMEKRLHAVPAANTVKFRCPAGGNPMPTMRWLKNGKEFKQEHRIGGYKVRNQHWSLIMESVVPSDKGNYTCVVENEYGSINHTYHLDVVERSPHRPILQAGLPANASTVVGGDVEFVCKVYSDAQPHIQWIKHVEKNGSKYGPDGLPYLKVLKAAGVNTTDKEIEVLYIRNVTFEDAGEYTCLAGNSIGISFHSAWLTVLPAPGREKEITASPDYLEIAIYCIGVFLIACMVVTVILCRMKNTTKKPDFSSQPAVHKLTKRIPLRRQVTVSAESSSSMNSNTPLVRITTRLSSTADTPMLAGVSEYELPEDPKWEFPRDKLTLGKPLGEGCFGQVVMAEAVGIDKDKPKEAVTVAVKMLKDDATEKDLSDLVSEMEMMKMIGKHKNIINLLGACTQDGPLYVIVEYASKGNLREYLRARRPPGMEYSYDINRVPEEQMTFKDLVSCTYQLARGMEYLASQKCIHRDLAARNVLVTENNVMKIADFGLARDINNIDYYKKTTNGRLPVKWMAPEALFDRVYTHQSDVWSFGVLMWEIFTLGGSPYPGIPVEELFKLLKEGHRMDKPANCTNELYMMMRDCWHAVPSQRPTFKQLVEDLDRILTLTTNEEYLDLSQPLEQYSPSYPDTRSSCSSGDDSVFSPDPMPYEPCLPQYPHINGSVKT
FGFR2 (P), sequence (P21802 22-821): as above
FGFR2, sequence (P21802 22-821 limits assumed): as the sequence (P21802 22-821) above
FGFR3, sequence (P22607 23-806 limits assumed): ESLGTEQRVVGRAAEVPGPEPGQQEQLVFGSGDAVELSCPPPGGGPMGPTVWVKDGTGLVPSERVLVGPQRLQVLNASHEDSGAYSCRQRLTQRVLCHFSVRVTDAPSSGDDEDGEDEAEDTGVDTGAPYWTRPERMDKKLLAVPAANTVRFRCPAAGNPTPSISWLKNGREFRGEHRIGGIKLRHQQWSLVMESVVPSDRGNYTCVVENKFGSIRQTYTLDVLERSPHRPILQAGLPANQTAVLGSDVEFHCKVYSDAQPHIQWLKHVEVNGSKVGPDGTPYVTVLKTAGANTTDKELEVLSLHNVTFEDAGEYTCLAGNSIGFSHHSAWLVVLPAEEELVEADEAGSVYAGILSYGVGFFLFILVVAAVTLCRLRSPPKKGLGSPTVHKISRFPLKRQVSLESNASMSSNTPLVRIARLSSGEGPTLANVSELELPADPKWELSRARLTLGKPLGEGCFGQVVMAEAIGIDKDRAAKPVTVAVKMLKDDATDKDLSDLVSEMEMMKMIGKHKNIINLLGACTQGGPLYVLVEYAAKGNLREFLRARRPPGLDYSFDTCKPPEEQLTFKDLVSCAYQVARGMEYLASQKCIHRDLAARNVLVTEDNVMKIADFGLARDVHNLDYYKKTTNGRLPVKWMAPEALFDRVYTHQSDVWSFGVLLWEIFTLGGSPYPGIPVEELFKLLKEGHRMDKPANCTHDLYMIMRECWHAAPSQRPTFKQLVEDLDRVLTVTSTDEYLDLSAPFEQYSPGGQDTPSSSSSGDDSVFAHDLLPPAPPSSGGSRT
FGFR3 (UP), sequence (P22607 23-806): as the sequence (P22607 23-806 limits assumed) above
FGFR1 (UP), sequence (P11362 22-822): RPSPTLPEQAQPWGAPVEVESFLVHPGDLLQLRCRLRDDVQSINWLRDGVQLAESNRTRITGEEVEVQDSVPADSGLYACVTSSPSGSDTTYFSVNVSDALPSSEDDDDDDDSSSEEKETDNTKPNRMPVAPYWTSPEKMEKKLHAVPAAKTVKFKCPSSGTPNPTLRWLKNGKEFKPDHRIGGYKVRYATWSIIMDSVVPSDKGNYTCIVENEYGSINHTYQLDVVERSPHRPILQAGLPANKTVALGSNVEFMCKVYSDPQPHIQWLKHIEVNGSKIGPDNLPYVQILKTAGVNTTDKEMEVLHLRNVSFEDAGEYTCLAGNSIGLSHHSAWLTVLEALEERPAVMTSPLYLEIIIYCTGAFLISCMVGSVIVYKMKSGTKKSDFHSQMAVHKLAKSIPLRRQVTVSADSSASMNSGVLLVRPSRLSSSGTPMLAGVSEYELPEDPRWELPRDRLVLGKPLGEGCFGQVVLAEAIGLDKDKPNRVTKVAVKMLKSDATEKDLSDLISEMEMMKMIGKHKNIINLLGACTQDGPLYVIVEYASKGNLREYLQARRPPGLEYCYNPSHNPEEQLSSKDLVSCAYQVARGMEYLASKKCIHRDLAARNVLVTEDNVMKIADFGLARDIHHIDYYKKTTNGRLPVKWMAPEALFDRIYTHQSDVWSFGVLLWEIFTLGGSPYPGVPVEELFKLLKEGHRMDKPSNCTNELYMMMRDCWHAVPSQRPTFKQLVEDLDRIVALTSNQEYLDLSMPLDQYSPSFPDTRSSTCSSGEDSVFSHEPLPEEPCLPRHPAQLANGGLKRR
FGFR1, sequence (P11362 22-822 limits assumed): as the sequence (P11362 22-822) above

Row | SMILES | IC50 (FGFR1 (UP)) [µM] | IC50 (RT112 cells) [µM] | IC50 (FGFR3 (UP)) [µM] | IC50 (FGFR2 (P)) [µM] | IC50 (FGFR3) [µM] | IC50 (FGFR1) [µM] | IC50 (FGFR1 (UP); [1]) [µM] | IC50 (ALK2 (aa 147-end); ALK2 3 μM IC50, 3 uM ATP) [µM] | IC50 (ALK2 (aa 147-end); [2]) [µM] | IC50 (FGFR2) [µM] | IC50 (FGFR2 (UP)) [µM] | IC50 (ALK2 (aa 147-end); ALK2 100 μM IC50, 100 uM ATP) [µM]
1 | CC(C)N1CC2CCC(C1=O)N2c1ncc2[nH]nc(-c3cnn(C)c3)c2n1 (stereo not shown) [Example 52, 3-Isopropyl-8-(3-(1-methyl-1H-pyrazol-4-yl)-1H-pyrazolo[4,3-d]pyrimidin-5-yl)-3,8-diazabicyclo[3.2.1]octan-2-one] | 0.1 to 0.5 | 0.1 to 0.5 | < 0.1 | < 0.1 | 0.1 to 0.5 | 0.1 to 0.5 | – | – | – | – | – | –
2 | CN1CC2CCC(C1=O)N2c1ncc2[nH]nc(-c3cnn(-c4ccc(C#N)cc4)c3)c2n1 (stereo not shown) [Example 70, 4-(4-(5-(3-Methyl-2-oxo-3,8-diazabicyclo[3.2.1]octan-8-yl)-1H-pyrazolo[4,3-d]pyrimidin-3-yl)-1H-pyrazol-1-yl)benzonitrile] | – | < 0.1 | < 0.1 | < 0.1 | < 0.1 | – | < 0.1 | 0.5 to 2 | > 2 | < 0.1 | < 0.1 | –
3 | CCN1CC2CCC(C1=O)N2c1ncc2[nH]nc(-c3cnn(C)c3)c2n1 (stereo not shown) [Example 50, 3-Ethyl-8-(3-(1-methyl-1H-pyrazol-4-yl)-1H-pyrazolo[4,3-d]pyrimidin-5-yl)-3,8-diazabicyclo[3.2.1]octan-2-one] | 0.1 to 0.5 | 0.1 to 0.5 | < 0.1 | < 0.1 | 0.1 to 0.5 | 0.1 to 0.5 | – | – | – | – | – | –
4 | Cc1cc(-n2cc(-c3n[nH]c4cnc(N5C6CCC5C(=O)N(C)C6)nc34)cn2)ccn1 (stereo not shown) [Example 71, 3-Methyl-8-(3-(1-(2-methylpyridin-4-yl)-1H-pyrazol-4-yl)-1H-pyrazolo[4,3-d]pyrimidin-5-yl)-3,8-diazabicyclo[3.2.1]octan-2-one] | – | < 0.1 | < 0.1 | < 0.1 | < 0.1 | – | < 0.1 | 0.5 to 2 | – | < 0.1 | – | 0.5 to 2
5 | CN1CC2CCC(C1=O)N2c1ncc2[nH]nc(-c3cnn(-c4ccc(N(C)C)nc4)c3)c2n1 (stereo not shown) [Example 72, 8-(3-(1-(6-(Dimethylamino)pyridin-3-yl)-1H-pyrazol-4-yl)-1H-pyrazolo[4,3-d]pyrimidin-5-yl)-3-methyl-3,8-diazabicyclo[3.2.1]octan-2-one] | – | 0.1 to 0.5 | < 0.1 | < 0.1 | < 0.1 | – | < 0.1 | 0.5 to 2 | – | < 0.1 | < 0.1 | 0.5 to 2
6 | CNC(=O)c1ccc(-n2cc(-c3n[nH]c4cnc(N5C6CCC5C(=O)N(C)C6)nc34)cn2)cc1F (stereo not shown) [Example 81, 2-Fluoro-N-methyl-4-(4-(5-(3-methyl-2-oxo-3,8-diazabicyclo[3.2.1]octan-8-yl)-1H-pyrazolo[4,3-d]pyrimidin-3-yl)-1H-pyrazol-1-yl)benzamide] | – | < 0.1 | < 0.1 | < 0.1 | < 0.1 | – | < 0.1 | 0.5 to 2 | – | < 0.1 | – | 0.5 to 2
7 | CN1CC2CCC(C1=O)N2c1ncc2[nH]nc(-c3cnn(-c4ccncc4)c3)c2n1 (stereo not shown) [Example 68, 3-Methyl-8-(3-(1-(pyridin-4-yl)-1H-pyrazol-4-yl)-1H-pyrazolo[4,3-d]pyrimidin-5-yl)-3,8-diazabicyclo[3.2.1]octan-2-one] | – | 0.1 to 0.5 | < 0.1 | < 0.1 | < 0.1 | – | < 0.1 | 0.5 to 2 | > 2 | < 0.1 | < 0.1 | –
8 | Cc1cc(-n2cc(-c3n[nH]c4cnc(N5C6CCC5C(=O)N(C)C6)nc34)cn2)ccc1C#N (stereo not shown) [Example 76, 2-Methyl-4-(4-(5-(3-methyl-2-oxo-3,8-diazabicyclo[3.2.1]octan-8-yl)-1H-pyrazolo[4,3-d]pyrimidin-3-yl)-1H-pyrazol-1-yl)benzonitrile] | – | < 0.1 | < 0.1 | < 0.1 | < 0.1 | – | < 0.1 | 0.5 to 2 | – | < 0.1 | < 0.1 | 0.5 to 2
